Measurements reported in PubChem BioAssay (NCI).
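Where inhibition never reached the appropriate level, the endpoint shown equals the highest concentration tested. Otherwise, values were interpolated linearly from a five-concentration, 48-hour dose response in 96-well plates. GI50 marks 50% less growth. The concentration for full growth arrest is given as TGI.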

Columns and labels:
Experiment in all cases: NCI tumour cell line growth inhibition, 48 h
[1] = system: MALME-3M melanoma
[2] = system: OVCAR-4 ovarian
[3] = system: SK-OV-3 ovarian
[4] = system: SNB-75 CNS
[5] = system: 786-0 renal
[6] = system: SK-MEL-28 melanoma
[7] = system: EKVX NSCLC
[8] = system: UACC-62 melanoma
[9] = system: MCF7 breast
[10] = system: HS 578T breast
[11] = system: MDA-MB-231 breast
[12] = system: HCC-2998 colon
[13] = system: U251 CNS
[14] = system: NCI-H460 lung
[15] = system: MOLT-4 leukemia
[16] = system: UO-31 renal
[17] = system: MDA-N
[18] = system: CAKI-1 renal
[19] = system: RXF 393 renal
[20] = system: SN12C renal
[21] = system: A549 NSCLC
[22] = system: NCI/ADR-RES ovarian
[23] = system: KM12 colon
[24] = system: OVCAR-3 ovarian
[25] = system: IGROV1 ovarian
[26] = system: LOX IMVI melanoma
[27] = system: HOP-92 NSCLC
[28] = system: OVCAR-5 ovarian
[29] = system: MDA-MB-435
[30] = system: K-562 leukemia
[31] = system: OVCAR-8 ovarian
[32] = system: SF-295 CNS
[33] = system: NCI-H522 lung
[34] = system: TK-10 renal
[35] = system: SW-620 colon
[36] = system: M14 melanoma
[37] = system: SR leukemia
[38] = system: HT29 colon
[39] = system: RPMI-8226 leukemia
[40] = system: COLO 205 colon
[41] = system: SK-MEL-5 melanoma
[42] = system: DU-145 prostate
[43] = system: NCI-H226 lung
[44] = system: HOP-62 NSCLC
[45] = system: T-47D breast
[46] = system: HL-60(TB) leukemia
[47] = system: HCT-116 colon
[48] = system: BT-549 breast
[49] = system: PC-3 prostate
[50] = system: NCI-H23 lung
[51] = system: SF-539 CNS
[52] = system: SF-268 CNS
[53] = system: ACHN renal
[54] = system: UACC-257 melanoma
[55] = system: SNB-19 CNS
[56] = system: CCRF-CEM leukemia
[57] = system: HCT-15 colon
[58] = system: SK-MEL-2 melanoma

COc1cc(O)c2c(=O)c(OC)c(-c3ccc(OC)c(OC)c3)oc2c1.[Co]
GI50 [1]: 51.4 µM | TGI [1]: > 100 µM | GI50 [2]: 13.1 µM | TGI [2]: > 100 µM | TGI [3]: > 100 µM | TGI [4]: > 100 µM | TGI [5]: > 100 µM | GI50 [6]: > 100 µM | TGI [6]: > 100 µM | GI50 [7]: > 100 µM | TGI [7]: > 100 µM | GI50 [8]: 32.3 µM | TGI [8]: > 100 µM | GI50 [9]: > 100 µM | TGI [9]: > 100 µM | TGI [10]: > 100 µM | GI50 [11]: 18.1 µM | TGI [11]: > 100 µM | GI50 [12]: > 100 µM | TGI [12]: > 100 µM | TGI [13]: > 100 µM | TGI [14]: > 100 µM | GI50 [15]: 9.92 µM | TGI [15]: > 100 µM | TGI [16]: > 100 µM | TGI [17]: > 100 µM | TGI [18]: > 100 µM | TGI [19]: > 100 µM | TGI [20]: > 100 µM | TGI [21]: > 100 µM | GI50 [22]: > 100 µM | TGI [22]: > 100 µM | GI50 [23]: > 100 µM | TGI [23]: > 100 µM | GI50 [24]: > 100 µM | TGI [24]: > 100 µM | GI50 [25]: > 100 µM | TGI [25]: > 100 µM | GI50 [26]: > 100 µM | TGI [26]: > 100 µM | GI50 [27]: 31.8 µM | TGI [27]: > 100 µM | GI50 [28]: > 100 µM | TGI [28]: > 100 µM | TGI [29]: > 100 µM | GI50 [30]: 75.5 µM | TGI [30]: > 100 µM | GI50 [31]: > 100 µM | TGI [31]: > 100 µM | GI50 [32]: 16.2 µM | TGI [32]: > 100 µM | TGI [33]: 35.1 µM | TGI [34]: > 100 µM | TGI [35]: > 100 µM | GI50 [36]: > 100 µM | TGI [36]: > 100 µM | GI50 [37]: 5.29 µM | TGI [37]: > 100 µM | GI50 [38]: > 100 µM | TGI [38]: > 100 µM | TGI [39]: > 100 µM | TGI [40]: > 100 µM | GI50 [41]: 70.3 µM | TGI [41]: > 100 µM | GI50 [42]: > 100 µM | TGI [42]: > 100 µM | TGI [43]: > 100 µM | GI50 [44]: 34.5 µM | TGI [44]: > 100 µM | GI50 [45]: 10.7 µM | TGI [45]: > 100 µM | TGI [46]: > 100 µM | GI50 [47]: 61.6 µM | TGI [47]: > 100 µM | TGI [48]: > 100 µM | GI50 [49]: 66.7 µM | TGI [49]: > 100 µM | GI50 [50]: > 100 µM | TGI [50]: > 100 µM | TGI [51]: > 100 µM | GI50 [52]: 38.4 µM | TGI [52]: > 100 µM | GI50 [53]: 56.9 µM | TGI [53]: > 100 µM

CN=C(NN)NS(=O)(=O)c1cc(C)c(Cl)cc1S
TGI [1]: > 100 µM | TGI [2]: > 100 µM | TGI [3]: > 100 µM | TGI [4]: > 100 µM | TGI [54]: > 100 µM | TGI [5]: > 100 µM | TGI [6]: > 100 µM | TGI [7]: > 100 µM | TGI [8]: > 100 µM | TGI [9]: > 100 µM | TGI [10]: 75.3 µM | TGI [11]: > 100 µM | TGI [12]: > 100 µM | TGI [13]: > 100 µM | TGI [16]: 74.7 µM | TGI [17]: > 100 µM | TGI [18]: > 100 µM | TGI [19]: > 100 µM | TGI [20]: > 100 µM | TGI [21]: > 100 µM | TGI [22]: > 100 µM | TGI [23]: > 100 µM | TGI [24]: > 100 µM | TGI [25]: > 100 µM | TGI [26]: > 100 µM | TGI [27]: > 100 µM | TGI [28]: > 100 µM | TGI [29]: > 100 µM | TGI [30]: > 100 µM | TGI [31]: > 100 µM | TGI [55]: > 100 µM | TGI [56]: > 100 µM | TGI [33]: 97.7 µM | TGI [34]: > 100 µM | TGI [35]: > 100 µM | TGI [36]: > 100 µM | TGI [37]: > 100 µM | TGI [38]: > 100 µM | TGI [39]: > 100 µM | TGI [40]: > 100 µM | TGI [41]: > 100 µM | TGI [57]: > 100 µM | TGI [42]: > 100 µM | TGI [43]: > 100 µM | TGI [44]: > 100 µM | TGI [45]: > 100 µM | TGI [46]: > 100 µM | TGI [47]: > 100 µM | TGI [48]: > 100 µM | TGI [49]: > 100 µM | TGI [51]: > 100 µM | TGI [52]: > 100 µM | TGI [58]: > 100 µM

O=C(OCCN=C1c2ccccc2CCc2ccccc21)c1ccccc1
TGI [1]: > 100 µM | TGI [2]: > 100 µM | TGI [3]: > 100 µM | TGI [4]: > 100 µM | TGI [54]: > 100 µM | TGI [5]: > 100 µM | TGI [6]: > 100 µM | TGI [7]: > 100 µM | TGI [8]: > 100 µM | TGI [9]: > 100 µM | TGI [10]: > 100 µM | TGI [11]: > 100 µM | TGI [12]: > 100 µM | TGI [13]: > 100 µM | TGI [14]: > 100 µM | TGI [15]: 39 µM | TGI [16]: > 100 µM | TGI [17]: > 100 µM | TGI [18]: > 100 µM | TGI [19]: > 100 µM | TGI [20]: > 100 µM | TGI [21]: > 100 µM | TGI [22]: > 100 µM | TGI [23]: > 100 µM | TGI [24]: > 100 µM | TGI [25]: > 100 µM | TGI [26]: > 100 µM | TGI [27]: > 100 µM | TGI [28]: > 100 µM | TGI [29]: > 100 µM | TGI [30]: > 100 µM | TGI [31]: > 100 µM | TGI [32]: > 100 µM | TGI [55]: > 100 µM | TGI [56]: > 100 µM | TGI [34]: > 100 µM | TGI [35]: > 100 µM | TGI [36]: > 100 µM | TGI [37]: 50.2 µM | TGI [38]: > 100 µM | TGI [39]: 34.2 µM | TGI [40]: > 100 µM | TGI [41]: > 100 µM | TGI [57]: > 100 µM | TGI [42]: > 100 µM | TGI [43]: > 100 µM | TGI [44]: > 100 µM | TGI [45]: > 100 µM | TGI [46]: > 100 µM | TGI [47]: > 100 µM | TGI [48]: > 100 µM | TGI [49]: > 100 µM | TGI [50]: > 100 µM | TGI [51]: > 100 µM | TGI [52]: > 100 µM | TGI [58]: > 100 µM | TGI [53]: > 100 µM

COC1CC(OC2C(C)OC(OC3C(C)OC(OC4C(C)OC(O[C@H]5CC[C@@]6(C)C(=CC[C@]7(O)[C@@H]6C[C@@H](OC(=O)/C=C/c6ccccc6)[C@@]6(C)[C@]7(O)CC[C@@]6(O)C(C)=O)C5)CC4OC)CC3OC)CC2OC)OC(C)C1O (stereo not given in full)
TGI [1]: > 12.5 µM | TGI [2]: > 12.5 µM | TGI [3]: > 12.5 µM | TGI [4]: > 12.5 µM | TGI [54]: > 12.5 µM | TGI [5]: > 12.5 µM | TGI [6]: > 12.5 µM | TGI [7]: > 12.5 µM | TGI [8]: > 12.5 µM | TGI [9]: > 12.5 µM | TGI [10]: > 12.5 µM | TGI [11]: > 12.5 µM | TGI [12]: > 12.5 µM | TGI [13]: > 12.5 µM | TGI [15]: > 12.5 µM | TGI [16]: > 12.5 µM | TGI [17]: > 12.5 µM | TGI [18]: > 12.5 µM | TGI [20]: > 12.5 µM | TGI [21]: > 12.5 µM | TGI [22]: > 12.5 µM | TGI [23]: > 12.5 µM | TGI [24]: > 12.5 µM | TGI [25]: > 12.5 µM | TGI [26]: > 12.5 µM | TGI [27]: > 12.5 µM | TGI [28]: > 12.5 µM | TGI [29]: > 12.5 µM | TGI [30]: > 12.5 µM | TGI [31]: > 12.5 µM | TGI [32]: > 12.5 µM | TGI [55]: > 12.5 µM | TGI [56]: > 12.5 µM | TGI [33]: > 12.5 µM | TGI [34]: > 12.5 µM | TGI [35]: > 12.5 µM | TGI [36]: > 12.5 µM | TGI [37]: > 12.5 µM | TGI [38]: > 12.5 µM | TGI [39]: > 12.5 µM | TGI [40]: > 12.5 µM | TGI [41]: > 12.5 µM | TGI [57]: > 12.5 µM | TGI [42]: > 12.5 µM | TGI [43]: > 12.5 µM | TGI [44]: > 12.5 µM | TGI [45]: > 12.5 µM | TGI [46]: > 12.5 µM | TGI [47]: > 12.5 µM | TGI [48]: > 12.5 µM | TGI [49]: > 12.5 µM | TGI [50]: > 12.5 µM | TGI [51]: > 12.5 µM | TGI [52]: > 12.5 µM | TGI [58]: > 12.5 µM | TGI [53]: > 12.5 µM
